In ChEMBL document CHEMBL3352227, “Synthesis, antimycobacterial and antibacterial evaluation of l-[(1R, 2S)-2-fluorocyclopropyl]fluoroquinolone derivatives containing an oxime functional moiety” (Eur J Med Chem, 2014):
In brackets after ≈: the same amount, converted by molar mass.

What follows are compounds tested on Escherichia coli (assay: Antibacterial activity against extended-spectrum beta-lactamase producing Escherichia coli 12-15 after 18 to 24 hrs by standard twofold serial dilution method).
Format: functional
For CCO/N=C1/CN(c2cc3c(cc2F)c(=O)c(C(=O)O)cn3[C@@H]2C[C@@H]2F)[C@H]1CN, the MIC was 128 µg/mL (≈ 315 µM).

What follows are compounds tested on Klebsiella pneumoniae (assay: Antibacterial activity against extended-spectrum beta-lactamase producin Klebsiella pneumoniae 12-4 after 18 to 24 hrs by standard twofold serial dilution method).
Format: functional
Compound CCO/N=C1/CN(c2cc3c(cc2F)c(=O)c(C(=O)O)cn3[C@@H]2C[C@@H]2F)[C@H]1CN has an MIC of 8 µg/mL (≈ 19.7 µM).

The compounds below were run on Klebsiella pneumoniae (assay: Antibacterial activity against extended-spectrum beta-lactamase producin Klebsiella pneumoniae 12-7 after 18 to 24 hrs by standard twofold serial dilution method).
Format: functional
With CCO/N=C1/CN(c2cc3c(cc2F)c(=O)c(C(=O)O)cn3[C@@H]2C[C@@H]2F)[C@H]1CN the MIC was 0.5 µg/mL (≈ 1.23 µM).

These compounds were tested on Escherichia coli (assay: Antibacterial activity against Escherichia coli 12-1 after 18 to 24 hrs by standard twofold serial dilution method).
Format: functional
In the case of CCO/N=C1/CN(c2cc3c(cc2F)c(=O)c(C(=O)O)cn3[C@@H]2C[C@@H]2F)[C@H]1CN, the MIC was 0.125 µg/mL (≈ 0.308 µM).

These compounds were tested on Staphylococcus aureus (assay: Antibacterial activity against methicillin-sensitive Staphylococcus aureus 12-4 after 18 to 24 hrs by standard twofold serial dilution method).
Format: functional
CCO/N=C1/CN(c2cc3c(cc2F)c(=O)c(C(=O)O)cn3[C@@H]2C[C@@H]2F)[C@H]1CN was tested, and the MIC was 0.06 µg/mL (≈ 0.148 µM).

These compounds were tested on Staphylococcus aureus (assay: Antibacterial activity against methicillin-sensitive Staphylococcus aureus 12-1 after 18 to 24 hrs by standard twofold serial dilution method).
Format: functional
CCO/N=C1/CN(c2cc3c(cc2F)c(=O)c(C(=O)O)cn3[C@@H]2C[C@@H]2F)[C@H]1CN was tested, and the MIC was 0.125 µg/mL (≈ 0.308 µM).

Each compound was assayed on Klebsiella pneumoniae (assay: Antibacterial activity against Klebsiella pneumoniae 12-1 after 18 to 24 hrs by standard twofold serial dilution method).
Format: functional
Compound CCO/N=C1/CN(c2cc3c(cc2F)c(=O)c(C(=O)O)cn3[C@@H]2C[C@@H]2F)[C@H]1CN has an MIC of 0.06 µg/mL (≈ 0.148 µM).

The compounds below were run on Staphylococcus epidermidis (assay: Antibacterial activity against methicillin-sensitive Staphylococcus epidermidis 12-6 after 18 to 24 hrs by standard twofold serial dilution method).
Format: functional
CCO/N=C1/CN(c2cc3c(cc2F)c(=O)c(C(=O)O)cn3[C@@H]2C[C@@H]2F)[C@H]1CN was tested, and the MIC was 0.125 µg/mL (≈ 0.308 µM).

These compounds were tested on Escherichia coli (assay: Antibacterial activity against extended-spectrum beta-lactamase producing Escherichia coli 12-14 after 18 to 24 hrs by standard twofold serial dilution method).
Format: functional
CCO/N=C1/CN(c2cc3c(cc2F)c(=O)c(C(=O)O)cn3[C@@H]2C[C@@H]2F)[C@H]1CN showed an MIC of 16 µg/mL (≈ 39.4 µM).

Each compound was assayed on Streptococcus pneumoniae (assay: Antibacterial activity against Streptococcus pneumoniae 12-18 after 18 to 24 hrs by standard twofold serial dilution method).
Format: functional
CCO/N=C1/CN(c2cc3c(cc2F)c(=O)c(C(=O)O)cn3[C@@H]2C[C@@H]2F)[C@H]1CN showed an MIC of 1 µg/mL (≈ 2.46 µM).

The compounds below were run on Staphylococcus aureus (assay: Antibacterial activity against methicillin-resistant Staphylococcus aureus 12-2 after 18 to 24 hrs by standard twofold serial dilution method).
Format: functional
Work on CCO/N=C1/CN(c2cc3c(cc2F)c(=O)c(C(=O)O)cn3[C@@H]2C[C@@H]2F)[C@H]1CN yielded an MIC of 16 µg/mL (≈ 39.4 µM).

These compounds were tested on Staphylococcus epidermidis (assay: Antibacterial activity against methicillin-sensitive Staphylococcus epidermidis 12-8 after 18 to 24 hrs by standard twofold serial dilution method).
Format: functional
In the case of CCO/N=C1/CN(c2cc3c(cc2F)c(=O)c(C(=O)O)cn3[C@@H]2C[C@@H]2F)[C@H]1CN, the MIC was 2 µg/mL (≈ 4.92 µM).

These compounds were tested on Klebsiella pneumoniae (assay: Antibacterial activity against extended-spectrum beta-lactamase producin Klebsiella pneumoniae 12-14 after 18 to 24 hrs by standard twofold serial dilution method).
Format: functional
In the case of CCO/N=C1/CN(c2cc3c(cc2F)c(=O)c(C(=O)O)cn3[C@@H]2C[C@@H]2F)[C@H]1CN, the MIC was 32 µg/mL (≈ 78.7 µM).

These compounds were tested on Escherichia coli (assay: Antibacterial activity against extended-spectrum beta-lactamase producing Escherichia coli 12-3 after 18 to 24 hrs by standard twofold serial dilution method).
Format: functional
CCO/N=C1/CN(c2cc3c(cc2F)c(=O)c(C(=O)O)cn3[C@@H]2C[C@@H]2F)[C@H]1CN was tested, and the MIC was 8 µg/mL (≈ 19.7 µM).

Each compound was assayed on Staphylococcus aureus (assay: Antibacterial activity against methicillin-sensitive Staphylococcus aureus 12-5 after 18 to 24 hrs by standard twofold serial dilution method).
Format: functional
CCO/N=C1/CN(c2cc3c(cc2F)c(=O)c(C(=O)O)cn3[C@@H]2C[C@@H]2F)[C@H]1CN was tested, and the MIC was 0.125 µg/mL (≈ 0.308 µM).

These compounds were tested on Staphylococcus aureus (assay: Antibacterial activity against methicillin-resistant Staphylococcus aureus 12-5 after 18 to 24 hrs by standard twofold serial dilution method).
Format: functional
CCO/N=C1/CN(c2cc3c(cc2F)c(=O)c(C(=O)O)cn3[C@@H]2C[C@@H]2F)[C@H]1CN gave an MIC of 16 µg/mL (≈ 39.4 µM).

What follows are compounds tested on Pseudomonas aeruginosa (assay: Antibacterial activity against Pseudomonas aeruginosa 12-12 after 18 to 24 hrs by standard twofold serial dilution method).
Format: functional
With CCO/N=C1/CN(c2cc3c(cc2F)c(=O)c(C(=O)O)cn3[C@@H]2C[C@@H]2F)[C@H]1CN the MIC was 0.5 µg/mL (≈ 1.23 µM).

What follows are compounds tested on Escherichia coli (assay: Antibacterial activity against Escherichia coli ATCC 25922 after 18 to 24 hrs by standard twofold serial dilution method).
Format: functional
For CCO/N=C1/CN(c2cc3c(cc2F)c(=O)c(C(=O)O)cn3[C@@H]2C[C@@H]2F)[C@H]1CN, the MIC was 0.03 µg/mL (≈ 0.0738 µM).

What follows are compounds tested on Staphylococcus aureus (assay: Antibacterial activity against Staphylococcus aureus ATCC 25923 after 18 to 24 hrs by standard twofold serial dilution method).
Format: functional
Work on CCO/N=C1/CN(c2cc3c(cc2F)c(=O)c(C(=O)O)cn3[C@@H]2C[C@@H]2F)[C@H]1CN yielded an MIC of 0.03 µg/mL (≈ 0.0738 µM).

What follows are compounds tested on Klebsiella pneumoniae (assay: Antibacterial activity against Klebsiella pneumoniae 12-2 after 18 to 24 hrs by standard twofold serial dilution method).
Format: functional
CCO/N=C1/CN(c2cc3c(cc2F)c(=O)c(C(=O)O)cn3[C@@H]2C[C@@H]2F)[C@H]1CN gave an MIC of 0.06 µg/mL (≈ 0.148 µM).

Each compound was assayed on Mycobacterium tuberculosis (assay: Antimycobacterial activity against Mycobacterium tuberculosis H37Rv ATCC 27294 by MABA method).
Format: functional
CCO/N=C1/CN(c2cc3c(cc2F)c(=O)c(C(=O)O)cn3[C@@H]2C[C@@H]2F)[C@H]1CN gave an MIC of 2 µg/mL (≈ 4.92 µM).

The compounds below were run on Klebsiella pneumoniae (assay: Antibacterial activity against extended-spectrum beta-lactamase producin Klebsiella pneumoniae 12-3 after 18 to 24 hrs by standard twofold serial dilution method).
Format: functional
CCO/N=C1/CN(c2cc3c(cc2F)c(=O)c(C(=O)O)cn3[C@@H]2C[C@@H]2F)[C@H]1CN showed an MIC of 32 µg/mL (≈ 78.7 µM).

What follows are compounds tested on Staphylococcus epidermidis (assay: Antibacterial activity against methicillin-sensitive Staphylococcus epidermidis 12-1 after 18 to 24 hrs by standard twofold serial dilution method).
Format: functional
CCO/N=C1/CN(c2cc3c(cc2F)c(=O)c(C(=O)O)cn3[C@@H]2C[C@@H]2F)[C@H]1CN was tested, and the MIC was 0.125 µg/mL (≈ 0.308 µM).

These compounds were tested on Staphylococcus epidermidis (assay: Antibacterial activity against methicillin-resistant Staphylococcus epidermidis 12-1 after 18 to 24 hrs by standard twofold serial dilution method).
Format: functional
Work on CCO/N=C1/CN(c2cc3c(cc2F)c(=O)c(C(=O)O)cn3[C@@H]2C[C@@H]2F)[C@H]1CN yielded an MIC of 4 µg/mL (≈ 9.84 µM).

What follows are compounds tested on Staphylococcus aureus (assay: Antibacterial activity against methicillin-resistant Staphylococcus aureus 12-4 after 18 to 24 hrs by standard twofold serial dilution method).
Format: functional
CCO/N=C1/CN(c2cc3c(cc2F)c(=O)c(C(=O)O)cn3[C@@H]2C[C@@H]2F)[C@H]1CN showed an MIC of 32 µg/mL (≈ 78.7 µM).

What follows are compounds tested on Pseudomonas aeruginosa (assay: Antibacterial activity against Pseudomonas aeruginosa 12-14 after 18 to 24 hrs by standard twofold serial dilution method).
Format: functional
For CCO/N=C1/CN(c2cc3c(cc2F)c(=O)c(C(=O)O)cn3[C@@H]2C[C@@H]2F)[C@H]1CN, the MIC was 32 µg/mL (≈ 78.7 µM).

What follows are compounds tested on Staphylococcus epidermidis (assay: Antibacterial activity against methicillin-sensitive Staphylococcus epidermidis 12-3 after 18 to 24 hrs by standard twofold serial dilution method).
Format: functional
Compound CCO/N=C1/CN(c2cc3c(cc2F)c(=O)c(C(=O)O)cn3[C@@H]2C[C@@H]2F)[C@H]1CN has an MIC of 0.5 µg/mL (≈ 1.23 µM).

What follows are compounds tested on Staphylococcus aureus (assay: Antibacterial activity against methicillin-sensitive Staphylococcus aureus 12-2 after 18 to 24 hrs by standard twofold serial dilution method).
Format: functional
In the case of CCO/N=C1/CN(c2cc3c(cc2F)c(=O)c(C(=O)O)cn3[C@@H]2C[C@@H]2F)[C@H]1CN, the MIC was 0.06 µg/mL (≈ 0.148 µM).

These compounds were tested on Klebsiella pneumoniae (assay: Antibacterial activity against Klebsiella pneumoniae 12-4 after 18 to 24 hrs by standard twofold serial dilution method).
Format: functional
In the case of CCO/N=C1/CN(c2cc3c(cc2F)c(=O)c(C(=O)O)cn3[C@@H]2C[C@@H]2F)[C@H]1CN, the MIC was 0.06 µg/mL (≈ 0.148 µM).

Each compound was assayed on Staphylococcus epidermidis (assay: Antibacterial activity against methicillin-resistant Staphylococcus epidermidis 12-6 after 18 to 24 hrs by standard twofold serial dilution method).
Format: functional
Work on CCO/N=C1/CN(c2cc3c(cc2F)c(=O)c(C(=O)O)cn3[C@@H]2C[C@@H]2F)[C@H]1CN yielded an MIC of 8 µg/mL (≈ 19.7 µM).

The compounds below were run on Escherichia coli (assay: Antibacterial activity against extended-spectrum beta-lactamase producing Escherichia coli 12-2 after 18 to 24 hrs by standard twofold serial dilution method).
Format: functional
With CCO/N=C1/CN(c2cc3c(cc2F)c(=O)c(C(=O)O)cn3[C@@H]2C[C@@H]2F)[C@H]1CN the MIC was 32 µg/mL (≈ 78.7 µM).

What follows are compounds tested on Streptococcus pneumoniae (assay: Antibacterial activity against Streptococcus pneumoniae ATCC 49619 after 18 to 24 hrs by standard twofold serial dilution method).
Format: functional
Compound CCO/N=C1/CN(c2cc3c(cc2F)c(=O)c(C(=O)O)cn3[C@@H]2C[C@@H]2F)[C@H]1CN has an MIC of 0.06 µg/mL (≈ 0.148 µM).
